Experimental data as given in patent US7790751B2, “Azinyl-3-sulfonylindazole derivatives as 5-hydroxytryptamine-6 ligands” (Wyeth LLC, priority 2005, dated 2010).
Where a name gives a salt, the structure may show the parent alone.

Tests used:
[1] = molecular target: human cloned 5-HT6 receptors (Homo sapiens, UniProt P50406); experiment: Evaluation of 5-HT6 binding affinity of test compounds ([3H]-LSD displacement)
human cloned 5-HT6 receptors, sequence (P50406 whole entry): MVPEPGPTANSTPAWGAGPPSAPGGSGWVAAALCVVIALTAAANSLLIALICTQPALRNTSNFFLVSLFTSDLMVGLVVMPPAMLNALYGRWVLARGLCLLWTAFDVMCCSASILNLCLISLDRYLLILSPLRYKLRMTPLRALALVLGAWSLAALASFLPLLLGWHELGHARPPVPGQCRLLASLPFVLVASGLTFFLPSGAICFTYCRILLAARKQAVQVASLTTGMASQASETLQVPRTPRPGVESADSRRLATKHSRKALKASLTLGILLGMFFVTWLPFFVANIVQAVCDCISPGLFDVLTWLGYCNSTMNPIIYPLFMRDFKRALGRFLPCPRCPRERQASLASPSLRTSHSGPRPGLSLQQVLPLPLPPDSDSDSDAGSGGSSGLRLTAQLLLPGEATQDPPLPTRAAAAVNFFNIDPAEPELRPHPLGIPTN

Row | melting point | Ki [1] | SMILES
1 | 168 to 170 °C | 0.01 to 10 nM | O=S(=O)(c1cccc2ccccc12)c1n[nH]c2ccc(OCC3CCCNC3)cc12 (centres unmarked) [Example 28, 3-(1-Naphthylsulfonyl)-5-(piperidin-3-ylmethoxy)-1H-indazole]
2 | 252 to 254 °C | – | CN1CCC(Oc2ccc3[nH]nc(S(=O)(=O)c4cccc5ccccc45)c3c2)CC1 (as salt: hydrochloride) [Example 21, 5-(1-Methylpiperidin-4-yloxy)-3-(1-naphthylsulfonyl)-1H-indazole Hydrochloride]
3 | 168 to 170 °C (dec.) | – | O=S(=O)(c1cccc2ccccc12)c1n[nH]c2ccc(OC3CCNC3)cc12 (centres unmarked) (as salt: hydrochloride) [Example 1, 3-(Naphthalene-1-sulfonyl)-5-(pyrrolidin-3-yloxy)-1H-indazole]
4 | 178 to 180 °C | 0.01 to 10 nM | O=S(=O)(c1cccc2ccccc12)c1n[nH]c2ccc(OC3CCCNC3)cc12 (centres unmarked) [Example 29, 3-(1-Naphthylsulfonyl)-5-(piperidin-3-yloxy)-1H-indazole]
5 | 174 to 176 °C (dec.) | – | O=S(=O)(c1cccc2ccccc12)c1n[nH]c2ccc(OC3CCNCC3)cc12 (as salt: hydrochloride) [Example 6, 3-(1-Naphthylsulfonyl)-5-(piperidin-4-yloxy)-1H-indazole Hydrochloride]
6 | 175 to 177 °C | 11 to 25 nM | O=S(=O)(c1cccc2ccccc12)c1n[nH]c2ccc(OCC3CCNCC3)cc12 [Example 27, 3-(1-naphthylsulfonyl)-5-(piperidin-4-ylmethoxy)-1H-indazole]
7 | – | 0.01 to 10 nM | CCCN1CCC(Oc2ccc3[nH]nc(S(=O)(=O)c4cccc5ccccc45)c3c2)CC1 [Example 19, 3-(1-Naphthylsulfonyl)-5-(1-propylpiperidin-4-yloxy)-1H-indazole Hydrochloride]
8 | – | 11 to 25 nM | O=S(=O)(c1cccc2ccccc12)c1n[nH]c2ccc(OC3CCN(CCc4ccccc4)C3)cc12 (centres unmarked) [Example 26, 3-(1-Naphthylsulfonyl)-5-{[1-(2-phenylethyl)pyrrolidin-3-yl]oxy}-1H-indazole Hydrochloride]
9 | – | 0.01 to 10 nM | Cc1cccc(S(=O)(=O)c2n[nH]c3ccc(NC4CCNCC4)cc23)c1 [Example 51, 3-[(3-methylphenyl)sulfonyl]-N-piperidin-4-yl-1H-indazol-5-amine]
10 | – | 0.01 to 10 nM | CCCN1CCC(Oc2ccc3[nH]nc(S(=O)(=O)c4cccc5ccccc45)c3c2)C1 (centres unmarked) [Example 3, 3-(Naphthalene-1-sulfonyl)-5-(1-propyl-pyrrolidin-3-yloxy)-1H-indazole Hydrochloride]
11 | – | > 45 nM | O=S(=O)(c1cccc2ccccc12)c1n[nH]c2cc(NC3CCNCC3)ccc12 [Example 33, 3-(1-Naphthylsulfonyl)-N-piperidin-4-yl-1H-indazol-6-amine Dihydrochloride]
12 | – | 0.01 to 10 nM | O=C(Nc1ccc2[nH]nc(S(=O)(=O)c3cccc4ccccc34)c2c1)C1CCNCC1 [Example 52, N-[3-(1-Naphthylsulfonyl)-1H-indazol-5-yl]piperidine-4-carboxamide Hydrochloride]
13 | – | 26 to 35 nM | O=C(Nc1cccc2c(S(=O)(=O)c3cccc4ccccc34)n[nH]c12)C1CCNCC1 [Example 54, N-[3-(1-Naphthylsulfonyl)-1H-indazol-7-yl]piperidine-4-carboxamide Dihydrochloride]
14 | – | 0.01 to 10 nM | O=S(=O)(c1cccc2ccccc12)c1n[nH]c2ccc(NC3CCCNC3)cc12 (centres unmarked) [Example 32, 3-(1-Naphthylsulfonyl)-N-piperidin-3-yl-1H-indazol-5-amine Dihydrochloride]
